# Assay results taken from paper PMC9297976 (Journal of Applied Toxicology, 2021).
# Assays:
# [1] = biological target: T1, medaka Esr1 (mEsr1) (Oryzias latipes, UniProt P50241); experiment: Medaka Esr1 reporter gene assay, antagonist assay; assay type: cell-based, Japanese medaka (Oryzias latipes); details: E2 spiked at 1.0 nM (B); MAC = 1.0 × 10^−4 M
# T1 sequence (P50241 1-620): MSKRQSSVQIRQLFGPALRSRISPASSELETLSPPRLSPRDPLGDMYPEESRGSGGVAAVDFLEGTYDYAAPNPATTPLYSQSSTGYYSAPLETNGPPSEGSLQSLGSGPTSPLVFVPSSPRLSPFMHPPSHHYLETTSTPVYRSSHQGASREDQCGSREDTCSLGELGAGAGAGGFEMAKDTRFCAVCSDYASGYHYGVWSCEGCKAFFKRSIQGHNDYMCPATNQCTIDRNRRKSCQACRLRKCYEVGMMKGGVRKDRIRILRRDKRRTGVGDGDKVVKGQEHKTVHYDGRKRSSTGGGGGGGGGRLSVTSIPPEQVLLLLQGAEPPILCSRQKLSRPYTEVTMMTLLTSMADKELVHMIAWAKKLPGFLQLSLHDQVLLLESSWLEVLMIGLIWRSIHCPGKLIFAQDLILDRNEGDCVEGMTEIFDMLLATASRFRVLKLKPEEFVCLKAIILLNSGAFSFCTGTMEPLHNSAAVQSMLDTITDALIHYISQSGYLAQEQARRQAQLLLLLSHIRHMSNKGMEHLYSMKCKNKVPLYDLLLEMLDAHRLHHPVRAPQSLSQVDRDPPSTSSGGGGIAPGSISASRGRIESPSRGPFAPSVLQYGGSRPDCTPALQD
# [2] = biological target: T2, medaka ARβ (mArβ) (Oryzias latipes, UniProt D1MV73); experiment: Medaka ARβ reporter gene assay, antagonist assay; assay type: cell-based, Japanese medaka (Oryzias latipes)
# T2 sequence (D1MV73 1-744): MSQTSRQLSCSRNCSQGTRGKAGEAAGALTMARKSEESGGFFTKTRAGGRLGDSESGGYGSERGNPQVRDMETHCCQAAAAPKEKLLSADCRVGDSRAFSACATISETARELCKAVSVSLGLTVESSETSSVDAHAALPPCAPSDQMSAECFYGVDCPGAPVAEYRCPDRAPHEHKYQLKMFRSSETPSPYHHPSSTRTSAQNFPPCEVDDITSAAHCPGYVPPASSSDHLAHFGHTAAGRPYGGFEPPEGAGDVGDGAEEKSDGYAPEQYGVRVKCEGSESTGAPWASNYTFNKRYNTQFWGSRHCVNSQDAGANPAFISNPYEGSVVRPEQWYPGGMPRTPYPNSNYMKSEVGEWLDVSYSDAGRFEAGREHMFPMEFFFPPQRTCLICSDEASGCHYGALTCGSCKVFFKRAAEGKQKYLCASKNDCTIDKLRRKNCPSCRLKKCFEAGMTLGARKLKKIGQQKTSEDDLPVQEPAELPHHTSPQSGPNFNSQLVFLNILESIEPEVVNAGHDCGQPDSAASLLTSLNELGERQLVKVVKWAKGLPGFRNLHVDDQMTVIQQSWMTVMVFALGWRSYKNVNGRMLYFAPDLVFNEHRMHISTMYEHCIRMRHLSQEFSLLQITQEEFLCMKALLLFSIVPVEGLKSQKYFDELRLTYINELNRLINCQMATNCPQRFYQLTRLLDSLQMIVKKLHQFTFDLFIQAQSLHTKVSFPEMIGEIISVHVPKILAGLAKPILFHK
# [3] = biological target: T1, medaka Esr1 (mEsr1); experiment: cell-based; parameters: species or system Japanese medaka (Oryzias latipes)
# [4] = system: Japanese medaka (Oryzias latipes); experiment: Fish Short‐Term Reproduction Assay; assay type: in vivo; details: for GSI Female / GSI Male / HSI Female / HSI Male / Length Female / Length Male / Weight Female / Weight Male: completion of exposure
# [5] = biological target: T2, medaka ARβ (mArβ); experiment: Medaka ARβ reporter gene assay, agonist assay; assay type: cell-based, Japanese medaka (Oryzias latipes)
# [6] = measured concentration 0.0943 mg/L
# [7] = measured concentration 0.939 mg/L
# [8] = measured concentration 9.53 mg/L
smiles,measurement,setting,value
"O=C(c1ccc(O)cc1O)c1ccc(O)cc1O [BP2, Benzophenone‐2]",Antagonistic activity,[1],NE (MAC = 1.0 × 10^−4 M)^(B)
same,In vitro positive: aAr,[2]; mode of action in which IC50 or IC30 was obtained in RGA,aAr
same,IC50,"[2]; read-out: Antagonistic activity IC50, 11‐KT spiked at 50 nM (D)",40 µM
same,Antagonistic activity on mArβ (in words),[2]; transcriptional activity on mArβ by 11KT,inhibitory potency
same,In vitro positive: Esr,[3]; mode of action in which EC50 or PC10 was obtained in RGA,Esr
same,EC50,"[3]; read-out: Agonistic activity EC50, HEK293 cells",1.6 µM
same,Fertility rate,"[4]; 0.0943 mg/L measured, 21 d",95 ± 2.3%
same,"Hepatic VTG, female","[4]; 0.0943 mg/L measured, 21 d",354 ± 105 ng/mg‐liver
same,"Hepatic VTG, male","[4]; 0.0943 mg/L measured, 21 d",0.5 ± 0.0 ng/mg‐liver
same,Mortality,"[4]; 0.0943 mg/L measured, 21 d",0.0%
same,"Mortality, number of dead fish","[4]; 0.0943 mg/L measured, 21 d",0
same,Number of fertilized eggs (per female per day),"[4]; 0.0943 mg/L measured, 21 d",15 ± 2.2
same,Number of total eggs (per female per day),"[4]; 0.0943 mg/L measured, 21 d",15 ± 2.3
same,SSC female (joint plates with papillary processes),"[4]; 0.0943 mg/L measured, 21 d",0 ± 0
same,SSC male (joint plates with papillary processes),"[4]; 0.0943 mg/L measured, 21 d",73 ± 7.0
same,Fertility rate,"[4]; 0.939 mg/L measured, 21 d",94 ± 2.5%
same,"Hepatic VTG, female","[4]; 0.939 mg/L measured, 21 d",398 ± 230 ng/mg‐liver
same,"Hepatic VTG, male","[4]; 0.939 mg/L measured, 21 d",0.9 ± 0.5 ng/mg‐liver
same,Mortality,"[4]; 0.939 mg/L measured, 21 d",4.2%
same,"Mortality, number of dead fish","[4]; 0.939 mg/L measured, 21 d",1
same,Number of fertilized eggs (per female per day),"[4]; 0.939 mg/L measured, 21 d",14 ± 2.3
same,Number of total eggs (per female per day),"[4]; 0.939 mg/L measured, 21 d",15 ± 2.7
same,SSC female (joint plates with papillary processes),"[4]; 0.939 mg/L measured, 21 d",0 ± 0
same,SSC male (joint plates with papillary processes),"[4]; 0.939 mg/L measured, 21 d",77 ± 20
same,"Hepatic VTG, female","[4]; 9.53 mg/L measured, 21 d",449 ± 114 ng/mg‐liver
same,Mortality,"[4]; 9.53 mg/L measured, 21 d",0.0%
same,"Mortality, number of dead fish","[4]; 9.53 mg/L measured, 21 d",0
same,Number of fertilized eggs (per female per day),"[4]; 9.53 mg/L measured, 21 d",13 ± 1.7
same,Number of total eggs (per female per day),"[4]; 9.53 mg/L measured, 21 d",14 ± 1.7
same,SSC female (joint plates with papillary processes),"[4]; 9.53 mg/L measured, 21 d",0 ± 0
same,SSC male (joint plates with papillary processes),"[4]; 9.53 mg/L measured, 21 d",79 ± 8.4
same,"Hepatic VTG, male","[4]; 9.53 mg/L measured, 21 d, sig. ↑ vs control",393 ± 306 ng/mg‐liver
same,Fertility rate,"[4]; 9.53 mg/L measured, 21 d, sig. ↓ vs control",90 ± 3.5%
same,"LOEC, elevated hepatic VTG in males",[4]; 21 d,9.53 mg/L
same,LOECmVTG,[4]; LOEC on VTG induction in males,"9,530 μg/L"
same,LOECREPRO,[4]; LOEC on reproduction (fecundity and/or fertility),"9,530 μg/L"
same,LOECREPRO (reduction in fecundity or fertility),[4]; concentrations without overt toxicity,"9,530 μg/L"
same,LOECTOX,[4]; lowest observed effect concentration on mortality,"ND (>9,530) μg/L"
same,GSI Female,[4]; [6],6.9 ± 0.3%
same,GSI Male,[4]; [6],1.07 ± 0.14%
same,HSI Female,[4]; [6],2.8 ± 0.87%
same,HSI Male,[4]; [6],1.8 ± 0.37%
same,Length Female,[4]; [6],30.2 ± 0.4 mm
same,Length Male,[4]; [6],30.8 ± 1.2 mm
same,Weight Female,[4]; [6],296 ± 16 mg
same,Weight Male,[4]; [6],291 ± 27 mg
same,GSI Female,[4]; [7],7.6 ± 1.2%
same,GSI Male,[4]; [7],0.69 ± 0.15%
same,HSI Female,[4]; [7],3.1 ± 0.68%
same,HSI Male,[4]; [7],1.9 ± 0.24%
same,Length Female,[4]; [7],30.3 ± 1.0 mm
same,Length Male,[4]; [7],30.6 ± 1.1 mm
same,Weight Female,[4]; [7],304 ± 48 mg
same,Weight Male,[4]; [7],290 ± 32 mg
same,GSI Female,[4]; [8],8.6 ± 0.4%
same,GSI Male,[4]; [8],0.79 ± 0.23%
same,HSI Female,[4]; [8],3.5 ± 0.58%
same,HSI Male,[4]; [8],2.0 ± 0.55%
same,Length Female,[4]; [8],30.4 ± 0.5 mm
same,Length Male,[4]; [8],31.9 ± 1.1 mm
same,Weight Female,[4]; [8],295 ± 8.0 mg
same,Weight Male,[4]; [8],327 ± 34 mg
same,Agonistic activity PC10,"[5]; HepG2 cells, concentration with 10% of maximum activity of 11KT",PC10 = 1.2 × 10^−5 M
same,Agonistic activity on mArβ (in words),[5]; only PC10 and not EC50 could be estimated,positive agonistic activity
